Data reported in patent US20070197560A1, “cGMP PDE 5 inhibitors for inhalation in the treatment of sexual dysfunction” (priority 1998, published 2007).

What was measured:
[1] = design: species or system Male Wistar:Han rats; conditions: rat, in vivo, inhaled or intranasal, 2.1 umol/kg, pH 6
Experimental: Male Wistar:Han rats used for this model are supplied by Harlan UK Ltd at 105 days of age and approximately 350 g weight. They are fed ad libitum with a standard laboratory diet and housed under controlled conditions (12 hours light/dark cycle; 20° C.) for at least one week prior to the experiment.
Compound A is dissolved, at a concentration of 1.75 mg/ml in 0.9% saline which has been acidified with 1M aqueous HCI (5 μl), giving a clear solution of pH 5.0. To the solution is added 1M aqueous NaOH (2μl) to increase the pH to 6.0, resulting in a very fine suspension. […] Each animal receives a 2.1 μmol/kg dose in 200 μl of suspension.
The following surgical procedure is used to prepare the animals for the experiment: the animals are anaesthetised, initially with 4% halothane, maintained with 2% halothane, both in a 1:1 oxygen: nitrous oxide mixture carrier. The anaesthetised animals are shaved on their ventral neck and craniodorsal back, then swabbed with a solution of 5% Hibitane in a 70% solution of ethanol in water. […] The patency of the cannula is assessed immediately before experimentation. […]
Withdrawn blood samples are analysed as follows: […]

[2] = rodent pharmacokinetic model simulating inhalation: intratracheal dry powder blend with lactose; conditions: rat
Experimental: (§1) A calculated nominal dose of 8.4 μmol/kg is administered to each of 3 male Wistar:Han rats by administration directly into the trachea via the mouth and vocal chords from a Penn-Century dry powder delivery device actuated via a 2 ml syringe containing air as a propellent.
(§2) A calculated nominal dose of 2.1 μmol/kg is administered to each of 4 male Wistar:Han rats by administration directly into the trachea via the mouth and vocal chords from a Penn-Century dry powder delivery device actuated via a 2 ml syringe containing air as a propellent.
(§3) Each of 3 animals receives a dose equivalent to 2.1 μmol/kg.

[3] = in vivo; conditions: male, Wistar:Han, rat, inhaled or intranasal, 2.1 umol/kg
Experimental: as §1, §2, §3

## CCCc1nn(C)c2c(=O)[nH]c(-c3cc(S(=O)(=O)N4CCN(C)CC4)ccc3OCC)nc12 [Compound A, 5-[2-ethoxy-5-(4-methylpiperazinylsulfonyl)phenyl]-1-methyl-3-n-propyl-1,6-dihydro-7H-pyrazolo[4,3-d]pyrimidin-7-one]
[1]
  Tmax (absorption time; time to maximum concentration in plasma): 5 min
[2]; citrate salt micronised to less than 5 μM, diluted by weight to 40% in lactose, nominal dose 8.4 μmol/kg, 3 rats
  time to peak plasma concentration (absorption time Tmax): 2 min

## CCOc1cnccc1-c1nc2n(C3CCCC3)[nH]c(CC)c-2c(=O)n1 [Compound C, 1-cyclopentyl-3-ethyl-6-(3-ethoxy-4-pyridyl)-pyrazolo[3,4-d]pyrimidin-4-one]
[3]
  Tmax: 2 to 20 min

## CCCOc1ccc(NS(C)(=O)=O)cc1-c1nc2c(c(C)nn2C)c(=O)[nH]1 [Compound D, 1,3-dimethyl-6-(2-propoxy-5-methanesulfonylamidophenyl)-1,5-dihydropyrazolo[3,4-d]pyrimidin-4-one]
[2]; 6% blend with lactose, 2.1 μmol/kg
  absorption time T max: 10 min
